The values that follow come from ChEMBL document CHEMBL4613209, “Quinolone hybrids and their anti-cancer activities: An overview” (Eur J Med Chem, 2019).

For orientation: IC50 means the midpoint of a concentration-inhibition curve.

The first assay deals with HL-60. Briefly: Cytotoxicity against human HL60 cells assessed as reduction in cell viability by MTT assay. The format is functional, cell-based. Background: Tetrazolium dyes change colour on reduction, which living cells bring about.
As to `CC1COc2c(N3CCN(C)CC3)c(F)cc3c(=O)c(-c4nc5scc(-c6ccc(O)cc6)n5n4)cn1c23` (stereo not given), the IC50 is 3.6 to 56.8 µM.

Consider `CCn1cc(-c2nc3scc(-c4ccc(Cl)cc4)n3n2)c(=O)c2cc(F)c(N3CCN(C)CC3)cc21`, for which the IC50 lay within 3.6 to 56.8 µM.

Consider `CN1CCN(c2cc3c(cc2F)c(=O)c(-c2nc4scc(-c5ccc(Br)cc5)n4n2)cn3C2CC2)CC1`, for which the IC50 fell in the range of 3.6 to 56.8 µM.

On to `CCn1cc(-c2nc(SCc3nnc(-c4cccc(C)c4)o3)n(CN(C)C)n2)c(=O)c2cc(F)c(N3CCN(C)CC3)cc21`, for which the IC50 fell in the range of 1.5 to 24.5 µM.

Consider `Cc1ccc(-c2csc3nc(-c4cn5c6c(c(N7CCN(C)CC7)c(F)cc6c4=O)OCC5C)nn23)cc1` (stereo not given), for which the IC50 was in the range of 3.6 to 56.8 µM.

On to `CCn1cc(-c2nc(SCc3nnc(-c4ccc(F)cc4)o3)n(CN(C)C)n2)c(=O)c2cc(F)c(N3CCN(C)CC3)cc21`, for which the IC50 was in the range of 1.5 to 5.2 µM.

As to `Cc1ccc(-c2csc3nc(-c4cn(C5CC5)c5cc(N6CCN(C)CC6)c(F)cc5c4=O)nn23)cc1`, the IC50 lay in the range of 3.6 to 56.8 µM.

Take `CCn1cc(-c2nnc(SCc3nnc(-c4cc(OC)c(OC)c(OC)c4)o3)[nH]2)c(=O)c2cc(F)c(N3CCN(C)CC3)cc21`: the IC50 lay within 3.8 to 35.2 µM.

For a further assay, the system named is CAPAN-1. Briefly: Cytotoxicity against human Capan1 cells assessed as reduction in cell viability by MTT assay. The format is functional, cell-based.
For `CC1COc2c(N3CCN(C)CC3)c(F)cc3c(=O)c(-c4nc5scc(-c6ccc(O)cc6)n5n4)cn1c23` (stereo not given), the half-maximal inhibitory concentration (IC50) was 3.6 to 56.8 µM.

With `CCn1cc(-c2nc3scc(-c4ccc(Cl)cc4)n3n2)c(=O)c2cc(F)c(N3CCN(C)CC3)cc21`, the IC50 fell in the range of 3.6 to 56.8 µM.

Take `CN1CCN(c2cc3c(cc2F)c(=O)c(-c2nc4scc(-c5ccc(Br)cc5)n4n2)cn3C2CC2)CC1`: the IC50 was in the range of 3.6 to 56.8 µM.

`CCn1cc(-c2nc(SCc3nnc(-c4cccc(C)c4)o3)n(CN(C)C)n2)c(=O)c2cc(F)c(N3CCN(C)CC3)cc21`: the IC50 was in the range of 1.5 to 24.5 µM.

As for `Cc1ccc(-c2csc3nc(-c4cn5c6c(c(N7CCN(C)CC7)c(F)cc6c4=O)OCC5C)nn23)cc1` (stereo not given), the IC50 is 3.6 to 56.8 µM.

Turning to `CCn1cc(-c2nc(SCc3nnc(-c4ccc(F)cc4)o3)n(CN(C)C)n2)c(=O)c2cc(F)c(N3CCN(C)CC3)cc21`, the IC50 fell in the range of 1.5 to 5.2 µM.

As for `Cc1ccc(-c2csc3nc(-c4cn(C5CC5)c5cc(N6CCN(C)CC6)c(F)cc5c4=O)nn23)cc1`, the IC50 is 3.6 to 56.8 µM.

`CCn1cc(-c2nnc(SCc3nnc(-c4cc(OC)c(OC)c(OC)c4)o3)[nH]2)c(=O)c2cc(F)c(N3CCN(C)CC3)cc21`: the IC50 was 3.8 to 35.2 µM.

The next assay concerns L1210. Briefly: Cytotoxicity against mouse L1210 cells assessed as reduction in cell viability by MTT assay. The format is functional, cell-based.
In the case of `CC1COc2c(N3CCN(C)CC3)c(F)cc3c(=O)c(-c4nc5scc(-c6ccc(O)cc6)n5n4)cn1c23` (stereo not given), the half-maximal inhibitory concentration (IC50) is 3.6 to 56.8 µM.

For `CCn1cc(-c2nc3scc(-c4ccc(Cl)cc4)n3n2)c(=O)c2cc(F)c(N3CCN(C)CC3)cc21`, the IC50 lay in the range of 3.6 to 56.8 µM.

For `CN1CCN(c2cc3c(cc2F)c(=O)c(-c2nc4scc(-c5ccc(Br)cc5)n4n2)cn3C2CC2)CC1`, the IC50 lay in the range of 3.6 to 56.8 µM.

Consider `CCn1cc(-c2nc(SCc3nnc(-c4cccc(C)c4)o3)n(CN(C)C)n2)c(=O)c2cc(F)c(N3CCN(C)CC3)cc21`, for which the IC50 was in the range of 1.5 to 24.5 µM.

As to `Cc1ccc(-c2csc3nc(-c4cn5c6c(c(N7CCN(C)CC7)c(F)cc6c4=O)OCC5C)nn23)cc1` (stereo not given), the half-inhibitory concentration (IC50) was 3.6 to 56.8 µM.

For the compound `CCn1cc(-c2nc(SCc3nnc(-c4ccc(F)cc4)o3)n(CN(C)C)n2)c(=O)c2cc(F)c(N3CCN(C)CC3)cc21`, the IC50 was 1.5 to 5.2 µM.

For the compound `Cc1ccc(-c2csc3nc(-c4cn(C5CC5)c5cc(N6CCN(C)CC6)c(F)cc5c4=O)nn23)cc1`, the IC50 was in the range of 3.6 to 56.8 µM.

For `CCn1cc(-c2nnc(SCc3nnc(-c4cc(OC)c(OC)c(OC)c4)o3)[nH]2)c(=O)c2cc(F)c(N3CCN(C)CC3)cc21`, the IC50 lay in the range of 3.8 to 35.2 µM.

The test system of another assay is SMMC-7721. In words: Cytotoxicity against human SMMC7721 cells assessed as reduction in cell viability by MTT assay. In kind it is functional, cell-based.
Regarding `CC1COc2c(N3CCN(C)CC3)c(F)cc3c(=O)c(-c4nc5scc(-c6ccc(O)cc6)n5n4)cn1c23` (stereo not given), the IC50 was 3.6 to 56.8 µM.

On to `CCn1cc(-c2nc3scc(-c4ccc(Cl)cc4)n3n2)c(=O)c2cc(F)c(N3CCN(C)CC3)cc21`, for which the IC50 was 3.6 to 56.8 µM.

On to `CN1CCN(c2cc3c(cc2F)c(=O)c(-c2nc4scc(-c5ccc(Br)cc5)n4n2)cn3C2CC2)CC1`, for which the IC50 is 3.6 to 56.8 µM.

As for `CCn1cc(-c2nc(SCc3nnc(-c4cccc(C)c4)o3)n(CN(C)C)n2)c(=O)c2cc(F)c(N3CCN(C)CC3)cc21`, the IC50 lay within 1.5 to 24.5 µM.

`Cc1ccc(-c2csc3nc(-c4cn5c6c(c(N7CCN(C)CC7)c(F)cc6c4=O)OCC5C)nn23)cc1` (stereo not given): the half-inhibitory concentration (IC50) was in the range of 3.6 to 56.8 µM.

For `CCn1cc(-c2nc(SCc3nnc(-c4ccc(F)cc4)o3)n(CN(C)C)n2)c(=O)c2cc(F)c(N3CCN(C)CC3)cc21`, the IC50 was 1.5 to 5.2 µM.

With `Cc1ccc(-c2csc3nc(-c4cn(C5CC5)c5cc(N6CCN(C)CC6)c(F)cc5c4=O)nn23)cc1`, the IC50 was 3.6 to 56.8 µM.

For the compound `CCn1cc(-c2nnc(SCc3nnc(-c4cc(OC)c(OC)c(OC)c4)o3)[nH]2)c(=O)c2cc(F)c(N3CCN(C)CC3)cc21`, the IC50 was in the range of 3.8 to 35.2 µM.

Another assay concerns Hep 3B2. Briefly: Cytotoxicity against human Hep3B cells assessed as reduction in cell viability by MTT assay. In kind it is functional, cell-based.
Consider `CC1COc2c(N3CCN(C)CC3)c(F)cc3c(=O)c(-c4nc5scc(-c6ccc(O)cc6)n5n4)cn1c23` (stereo not given), for which the 50% inhibitory concentration (IC50) was in the range of 3.6 to 56.8 µM.

`CCn1cc(-c2nc3scc(-c4ccc(Cl)cc4)n3n2)c(=O)c2cc(F)c(N3CCN(C)CC3)cc21`: the IC50 is 3.6 to 56.8 µM.

For `CN1CCN(c2cc3c(cc2F)c(=O)c(-c2nc4scc(-c5ccc(Br)cc5)n4n2)cn3C2CC2)CC1`, the IC50 was 3.6 to 56.8 µM.

Take `CCn1cc(-c2nc(SCc3nnc(-c4cccc(C)c4)o3)n(CN(C)C)n2)c(=O)c2cc(F)c(N3CCN(C)CC3)cc21`: the IC50 lay within 1.5 to 24.5 µM.

For the compound `Cc1ccc(-c2csc3nc(-c4cn5c6c(c(N7CCN(C)CC7)c(F)cc6c4=O)OCC5C)nn23)cc1` (stereo not given), the IC50 was in the range of 3.6 to 56.8 µM.

In the case of `CCn1cc(-c2nc(SCc3nnc(-c4ccc(F)cc4)o3)n(CN(C)C)n2)c(=O)c2cc(F)c(N3CCN(C)CC3)cc21`, the half-inhibitory concentration (IC50) lay in the range of 1.5 to 5.2 µM.

Take `Cc1ccc(-c2csc3nc(-c4cn(C5CC5)c5cc(N6CCN(C)CC6)c(F)cc5c4=O)nn23)cc1`: the IC50 was 3.6 to 56.8 µM.

In the case of `CCn1cc(-c2nnc(SCc3nnc(-c4cc(OC)c(OC)c(OC)c4)o3)[nH]2)c(=O)c2cc(F)c(N3CCN(C)CC3)cc21`, the IC50 lay in the range of 3.8 to 35.2 µM.
